Test results taken from patent publication US20210188856A1, “CRYSTAL FORM OF HYDROCHLORIDE OF PYRAZOLOHETEROARYL DERIVATIVE AND PREPARATION METHOD” (JIANGSU HENGRUI MEDICINE CO., LTD., priority 2018, published 2021).

How the values were obtained:
[1] = target: T1, human TLR8 (Homo sapiens, UniProt Q9NR97); assay: Agonistic effect on human TLR8 (HEK-Blue hTLR8 cells); assay type: cell-based
T1 construct: host or cells: HEK-Blue hTLR8 (HEK293-derived) stably transfected cells
T1 sequence (Q9NR97 27-1041): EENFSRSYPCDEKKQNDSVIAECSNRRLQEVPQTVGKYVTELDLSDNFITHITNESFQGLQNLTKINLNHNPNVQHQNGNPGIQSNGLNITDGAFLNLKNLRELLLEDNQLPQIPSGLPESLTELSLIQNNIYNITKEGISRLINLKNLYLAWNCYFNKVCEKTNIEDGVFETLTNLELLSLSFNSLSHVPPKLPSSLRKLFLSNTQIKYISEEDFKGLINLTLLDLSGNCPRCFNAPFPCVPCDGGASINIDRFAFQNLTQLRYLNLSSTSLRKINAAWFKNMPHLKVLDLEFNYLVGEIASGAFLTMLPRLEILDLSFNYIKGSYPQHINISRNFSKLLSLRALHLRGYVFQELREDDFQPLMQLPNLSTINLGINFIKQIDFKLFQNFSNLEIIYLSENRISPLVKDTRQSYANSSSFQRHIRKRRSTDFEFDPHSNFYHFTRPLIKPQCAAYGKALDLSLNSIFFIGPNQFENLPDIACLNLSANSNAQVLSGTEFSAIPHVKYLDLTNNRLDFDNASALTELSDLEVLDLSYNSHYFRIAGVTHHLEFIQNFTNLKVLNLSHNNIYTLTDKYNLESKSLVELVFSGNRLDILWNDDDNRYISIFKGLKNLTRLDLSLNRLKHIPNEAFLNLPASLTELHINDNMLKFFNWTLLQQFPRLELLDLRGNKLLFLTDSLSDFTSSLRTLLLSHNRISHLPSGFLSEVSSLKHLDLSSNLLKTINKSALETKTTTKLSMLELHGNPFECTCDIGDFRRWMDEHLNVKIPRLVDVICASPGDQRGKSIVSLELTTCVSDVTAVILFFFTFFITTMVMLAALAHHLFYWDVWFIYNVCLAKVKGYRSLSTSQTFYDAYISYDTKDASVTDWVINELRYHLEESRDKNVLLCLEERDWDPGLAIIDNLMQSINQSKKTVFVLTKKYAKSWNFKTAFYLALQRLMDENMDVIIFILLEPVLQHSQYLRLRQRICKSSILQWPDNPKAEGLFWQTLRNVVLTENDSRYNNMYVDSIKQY
Description: The agonistic effect of the compound represented by formula (I) on the hTLR8 protein expressed in HEK-Blue™ hTLR8 stably transfected cells was determined by the following experimental method:
A bag of HEK-Blue detection dry powder was dissolved in 50 mL of water free of endotoxin, and the solution was then placed in an incubator at 37° C. for 10 minutes followed by sterile filtration to prepare a HEK-Blue detection medium. The compound was firstly formulated into a 20 mM stock solution, then diluted with pure DMSO to a maximum concentration of 6×10^6 nM, and a total of 10 points were obtained by a 3-fold gradient dilution. The compound was firstly diluted 20-fold with the medium, then 20 μL of the diluted compound was added to each well.
The supernatant was removed from the HEK-Blue™ hTLR8 cells, to which 2-5 mL of pre-warmed PBS was then added. The cells were placed in an incubator for 1-2 minutes, gently pipetted, and counted by trypan blue staining. The cells were re-suspended in the HEK-Blue detection medium and the concentration was adjusted to 2.2×10^5 cells/mL. 180 μL of cells was added to the above 96-well plate added with 20 μL of the compound, and incubated at 37° C. for 6-16 hours.
The plate was read with a microplate reader at a wavelength of 620 nm. The corresponding OD values were obtained, and the EC50 value of the compound was calculated by Graphpad Prism.

[2] = system: peripheral blood mononuclear cells (PBMC); assay: Stimulation of IFN-α secretion from PBMC; assay type: cell-based, human; details: 24 hours, lowest concentration giving cytokine level at least 3 times the minimum detection limit
Description: The ability of the compound of the present disclosure to stimulate the secretion of IFN-α from PBMC was determined by the following experimental method:
The compound was diluted with pure DMSO to a maximum concentration of 5 mM, and a total of 9 points were obtained by a 4-fold gradient dilution. 4 μL of the compound was then added to 196 μL of RMPI 1640 medium containing 10% FBS and mixed well. 50 μL of the mixture was taken from each well and added to a new 96-well cell culture plate.
All reagents were equilibrated to room temperature. 60 mL of blood and PBS+2% FBS were added to a 250 mL culture flask, gently pipetted, mixed well and diluted. 15 mL of lymphocyte separation solution Ficoll-Paque PREMIUM and then 30 mL of diluted blood were added to a 50 mL PBMC centrifuge tube SepMate™-50. The mixture was centrifuged at 1200 g for 10 minutes at room temperature. The supernatant was taken and then centrifuged at 300 g for 8 minutes. The cells were re-suspended in the RMPI 1640 medium containing 10% FBS and counted, and the number of PBMCs was adjusted to 3.33×10^6 cells/mL. 150 μL of the cell solution was added to the plate added with the compound, and incubated in an incubator at 37° C., 5.0% CO2 for 24 hours.
The cell culture plate was placed in a centrifuge, and centrifuged at 1200 rpm for 10 minutes at room temperature. […]
The plate was read with PHERAStar in the HTRF mode. […]

CCCCOc1nc(N)c2cnn(Cc3ccc(CN4CCCC4)cc3)c2n1 [compound represented by formula (I), 6-Butoxy-1-(4-(pyrrolidin-1-ylmethyl)benzyl)-1H-pyrazolo[3,4-d]pyrimidin-4-amine]
agonistic effect on human TLR8 (in words) ([1]; HEK-Blue hTLR8 cells): no agonistic effect | selectivity for TLR7 over TLR8 (in words) ([1]; from TLR7 and TLR8 results): high selectivity | MEC (minimal effective concentration), IFN-α secretion from PBMC [2]: 6 nM
